These results are taken from patent US12247045B2, “MAP4K4 inhibitors” (Imperial College Innovations Limited, priority 2018, dated 2025).

Like-named read-outs stand apart in the source and are kept apart here.

Common to all, as to type: biochemical
The target of one assay is KHS/MAP4K5 (Homo sapiens, UniProt Q9Y4K4). Kind of assay: Kinase selectivity panel, KHS/MAP4K5. The text has this:
(§1) The data in Table 42 also provides the fold selectivity of the two compounds in favour of MAP4K4 over the tested kinase. The fold selectivity is indicated in parenthesis.

Assay [1] has as its target T1, human MAP4K4 kinase domain (Homo sapiens, UniProt O95819).
T1 construct: 0.5 nM human MAP4K4 kinase domain (Invitrogen); purchased Invitrogen
Kind of assay: MAP4K4 kinase activity, CisBio HTRF Transcreener ADP assay. A digest of the protocol:
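HTRF Transcreener ADP read-out (665/620 nm ratio) of ADP formed by 0.5 nM kinase domain with 1 μM biotin-myelin basic protein substrate and ATP at Km (10 μM), 1% DMSO, 2 h reaction. IC50 values binned as A ≤100 nM, B 100 nM–1 μM, C >1 μM.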

The target of the next assay is TNIK/MAP4K7 (Homo sapiens, UniProt Q9UKE5). The assay can be described thus: Kinase selectivity panel, TNIK/MAP4K7. The settings on record: read-out: pIC50 TNIK/MAP4K7 (converted).
Description: as §1

For the next assay, the target named is MINK1/MAP4K6 (Homo sapiens, UniProt Q8N4C8). Kind of assay: Kinase selectivity panel, MINK1/MAP4K6. Particulars: read-out: pIC50 MINK1/MAP4K6 (converted).
Description: as §1

T1 sequence (O95819 25-289 limits assumed): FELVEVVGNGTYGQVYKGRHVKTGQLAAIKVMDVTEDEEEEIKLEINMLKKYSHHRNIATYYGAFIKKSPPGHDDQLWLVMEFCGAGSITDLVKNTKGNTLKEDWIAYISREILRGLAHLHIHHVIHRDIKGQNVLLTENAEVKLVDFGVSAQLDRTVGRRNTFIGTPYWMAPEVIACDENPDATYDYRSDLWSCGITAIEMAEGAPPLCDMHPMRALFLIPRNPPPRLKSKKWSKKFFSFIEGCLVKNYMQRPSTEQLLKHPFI
Chain of KHS/MAP4K5 (Q9Y4K4 whole entry): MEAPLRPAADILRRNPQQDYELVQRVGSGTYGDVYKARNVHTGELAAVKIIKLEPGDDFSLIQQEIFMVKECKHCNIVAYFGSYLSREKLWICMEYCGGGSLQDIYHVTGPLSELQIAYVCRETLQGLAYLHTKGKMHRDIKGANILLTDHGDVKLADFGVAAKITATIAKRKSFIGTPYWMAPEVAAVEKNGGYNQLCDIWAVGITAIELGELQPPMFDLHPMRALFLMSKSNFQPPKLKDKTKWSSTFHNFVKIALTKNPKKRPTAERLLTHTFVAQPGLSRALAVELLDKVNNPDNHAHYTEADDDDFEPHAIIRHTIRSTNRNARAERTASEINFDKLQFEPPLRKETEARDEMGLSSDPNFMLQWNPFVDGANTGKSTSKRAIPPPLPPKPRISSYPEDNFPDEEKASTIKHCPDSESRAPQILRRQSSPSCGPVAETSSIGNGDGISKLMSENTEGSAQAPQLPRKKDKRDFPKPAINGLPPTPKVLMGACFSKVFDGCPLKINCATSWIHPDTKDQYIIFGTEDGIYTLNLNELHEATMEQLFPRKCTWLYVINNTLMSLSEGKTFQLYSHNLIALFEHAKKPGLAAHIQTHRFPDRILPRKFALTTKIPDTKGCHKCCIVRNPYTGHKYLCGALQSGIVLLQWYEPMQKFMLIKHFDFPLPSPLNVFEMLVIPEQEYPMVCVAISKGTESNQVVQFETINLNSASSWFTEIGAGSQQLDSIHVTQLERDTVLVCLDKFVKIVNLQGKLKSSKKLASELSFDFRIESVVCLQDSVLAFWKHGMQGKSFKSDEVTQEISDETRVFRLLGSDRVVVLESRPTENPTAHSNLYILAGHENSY
Chain of MINK1/MAP4K6 (Q8N4C8 whole entry): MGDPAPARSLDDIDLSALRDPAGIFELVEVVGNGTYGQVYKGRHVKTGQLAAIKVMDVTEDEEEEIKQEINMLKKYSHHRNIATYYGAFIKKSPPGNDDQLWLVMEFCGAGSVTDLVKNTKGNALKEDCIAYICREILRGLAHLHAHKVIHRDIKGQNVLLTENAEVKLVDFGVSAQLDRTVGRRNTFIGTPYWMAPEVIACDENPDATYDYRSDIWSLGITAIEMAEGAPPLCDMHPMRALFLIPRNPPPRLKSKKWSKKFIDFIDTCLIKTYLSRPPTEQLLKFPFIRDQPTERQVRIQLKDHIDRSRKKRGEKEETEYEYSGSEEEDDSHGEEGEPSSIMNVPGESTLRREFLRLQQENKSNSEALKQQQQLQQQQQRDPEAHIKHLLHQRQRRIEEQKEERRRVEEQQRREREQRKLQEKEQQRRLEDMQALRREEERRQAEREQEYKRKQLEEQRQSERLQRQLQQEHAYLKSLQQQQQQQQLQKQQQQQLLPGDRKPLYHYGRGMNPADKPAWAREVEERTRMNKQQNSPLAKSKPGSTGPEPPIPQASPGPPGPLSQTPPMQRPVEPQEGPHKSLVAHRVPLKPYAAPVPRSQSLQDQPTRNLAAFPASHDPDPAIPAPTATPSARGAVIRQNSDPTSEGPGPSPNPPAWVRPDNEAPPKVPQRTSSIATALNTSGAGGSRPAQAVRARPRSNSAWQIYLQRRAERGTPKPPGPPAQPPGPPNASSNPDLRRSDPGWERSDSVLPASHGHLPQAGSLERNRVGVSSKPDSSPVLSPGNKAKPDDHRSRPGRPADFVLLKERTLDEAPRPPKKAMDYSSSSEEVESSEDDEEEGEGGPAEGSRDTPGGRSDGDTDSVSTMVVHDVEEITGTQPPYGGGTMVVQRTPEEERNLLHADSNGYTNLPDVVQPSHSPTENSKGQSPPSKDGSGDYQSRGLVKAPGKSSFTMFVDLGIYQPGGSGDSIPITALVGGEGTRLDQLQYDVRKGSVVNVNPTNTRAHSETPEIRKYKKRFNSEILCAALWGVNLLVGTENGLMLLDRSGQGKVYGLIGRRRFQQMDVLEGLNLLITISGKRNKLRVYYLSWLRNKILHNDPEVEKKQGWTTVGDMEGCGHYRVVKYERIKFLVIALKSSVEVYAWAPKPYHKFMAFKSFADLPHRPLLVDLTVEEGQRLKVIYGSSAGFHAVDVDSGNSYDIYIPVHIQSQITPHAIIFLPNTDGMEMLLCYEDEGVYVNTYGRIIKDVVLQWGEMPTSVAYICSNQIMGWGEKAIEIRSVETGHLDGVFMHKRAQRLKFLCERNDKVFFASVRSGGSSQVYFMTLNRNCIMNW
Chain of TNIK/MAP4K7 (Q9UKE5 whole entry): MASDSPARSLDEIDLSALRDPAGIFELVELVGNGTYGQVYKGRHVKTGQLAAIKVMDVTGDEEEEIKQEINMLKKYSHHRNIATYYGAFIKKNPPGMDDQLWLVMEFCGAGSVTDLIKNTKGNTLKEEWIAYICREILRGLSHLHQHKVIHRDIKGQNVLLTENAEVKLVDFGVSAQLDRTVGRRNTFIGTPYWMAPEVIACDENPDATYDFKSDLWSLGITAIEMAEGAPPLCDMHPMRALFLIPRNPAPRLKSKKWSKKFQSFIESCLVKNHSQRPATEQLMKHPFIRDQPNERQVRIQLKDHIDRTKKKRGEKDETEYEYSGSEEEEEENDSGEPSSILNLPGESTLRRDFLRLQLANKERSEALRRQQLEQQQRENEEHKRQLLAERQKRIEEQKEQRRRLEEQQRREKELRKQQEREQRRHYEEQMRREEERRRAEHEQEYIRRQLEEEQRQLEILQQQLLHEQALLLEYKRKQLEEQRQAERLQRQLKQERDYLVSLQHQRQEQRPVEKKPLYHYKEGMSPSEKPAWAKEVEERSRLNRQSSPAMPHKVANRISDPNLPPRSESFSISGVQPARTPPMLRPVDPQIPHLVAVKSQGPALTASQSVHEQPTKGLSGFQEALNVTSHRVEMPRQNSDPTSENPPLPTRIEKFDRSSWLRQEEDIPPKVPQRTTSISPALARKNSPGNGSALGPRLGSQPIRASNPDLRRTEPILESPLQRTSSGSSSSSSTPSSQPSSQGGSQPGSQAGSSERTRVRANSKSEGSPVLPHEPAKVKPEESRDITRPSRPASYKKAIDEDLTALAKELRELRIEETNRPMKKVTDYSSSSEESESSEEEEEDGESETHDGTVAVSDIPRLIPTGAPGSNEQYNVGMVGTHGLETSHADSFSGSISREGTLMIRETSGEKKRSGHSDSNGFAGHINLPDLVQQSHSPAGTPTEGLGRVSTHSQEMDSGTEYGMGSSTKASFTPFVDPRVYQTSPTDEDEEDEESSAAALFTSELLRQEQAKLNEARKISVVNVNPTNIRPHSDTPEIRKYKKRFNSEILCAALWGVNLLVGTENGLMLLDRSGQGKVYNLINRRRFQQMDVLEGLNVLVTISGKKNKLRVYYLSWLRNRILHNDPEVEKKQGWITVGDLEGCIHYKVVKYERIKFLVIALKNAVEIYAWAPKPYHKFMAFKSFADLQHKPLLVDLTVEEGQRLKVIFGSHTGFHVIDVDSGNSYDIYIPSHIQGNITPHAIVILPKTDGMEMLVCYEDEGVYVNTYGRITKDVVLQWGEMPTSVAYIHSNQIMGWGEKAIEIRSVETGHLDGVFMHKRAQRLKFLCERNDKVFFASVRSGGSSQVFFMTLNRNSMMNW

On to `CC(C)(O)CCOc1ccc(-c2cn(-c3cccnc3)c3nc[nH]c(=O)c23)cc1` [Ex-78, 5-(4-(3-hydroxy-3-methylbutoxy)phenyl)-7-(pyridin-3-yl)-3,7-dihydro-4H-pyrrolo[2,3-d]pyrimidin-4-one], for which the “fold selectivity MAP4K4 over KHS/MAP4K5” value at KHS/MAP4K5 (in favour of MAP4K4) is given as “(10) fold”. Also, the IC50 at KHS/MAP4K5 (read-out: pIC50 KHS/MAP4K5 (converted)) was 316 nM; in assay [1] (IC50 category, ATP at Km (10 μM), 0.5 nM kinase domain, 2 h, read-out: MAP4K4) it was not above 100 nM; in assay [1] (read-out: pIC50 MAP4K4 (converted)) it was 31.6 nM; at TNIK/MAP4K7, 126 nM; at MINK1/MAP4K6 it was 63.1 nM.
